Source: US12622917B2, “High-activity Wnt pathway inhibitor compound” (ADLAI NORTYE BIOPHARMA CO., LTD., priority 2020, dated 2026)
Where two headings read alike, the source gives them in different places.

Assays:
Colo205 = test: Proliferation inhibition, Wnt mutant cell line Colo205; format: cell-based; conditions: Colo205, Wnt pathway-dependent, 96 hours, read-out: Antiproliferative IC50 Colo205
How it was run: (§1)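 1000 cells/well, 37° C/5% CO2, 20-24 h attach; 3-fold serial dilution, max final 20 uM; 96 h exposure. Promega viability readout, full wavelength mode. DMSO wells = positive ctrl, no-cell wells = negative ctrl; IC50 reported.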

[1] = test system: Colo205-LUC-TCF/LEF M1 reporter cell line (Wnt pathway); test: Colo205-LUC-TCF/LEF M1 reporter gene (luciferase) inhibition; format: cell-based; conditions: 4 hours incubation, luciferase readout
How it was run: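 Luminescent readout of TCF/LEF-regulated luciferase after a 4 h, 37° C compound exposure in a stable Colo205 reporter clone (10,000 cells/well). Serial 3-fold dilutions started at 20 uM; IC50 derived using DMSO-treated cells and no-cell wells as controls.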

HepG2 = test: Proliferation inhibition, HepG2 cell line; format: cell-based; conditions: Homo sapiens; HepG2 cells, 96 hours culture, cell viability detection; read-out: Antiproliferative IC50 HepG2
How it was run: (§2)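 Wnt-dependent proliferation in HepG2 and NCI-H929 cells, seeded at 4000 cells/well and pre-incubated 20-24 h at 37 °C. Cells were then exposed for 96 h to 3-fold serial dilutions (top final concentration 20 uM), and viability was read by signal intensity. IC50 was referenced to DMSO-only wells and cell-free wells.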

RKO = test: Proliferation inhibition, non-Wnt mutant control cell line RKO; format: cell-based; conditions: Wnt-independent control cell line, 96 hours, read-out: Antiproliferative IC50 RKO
How it was run: as §1

Hela = test: Proliferation inhibition, non-Wnt mutant control cell line Hela; format: cell-based; conditions: Wnt-independent control cell line, 96 hours, read-out: Antiproliferative IC50 Hela
Excerpt: The cell lines used in the experiment are Colo205 and DU4475 cell lines whose Wnt pathway is continuously activated and whose proliferation is Wnt pathway-dependent; while the BELA and RKO cell lines, whose Wnt pathway is not activated under normal circumstances and the proliferation is independent of Wnt pathway, as control cell lines. It is Judged that the inhibitory effect of the compound of the present invention on Wnt-dependent proliferation is not caused by other non-specific toxicity.
Treat the Colo205, Du4475, HELA and RKO cell lines cultured in their respective mediums in the logarithmic growth phase, collect the cells and prepare a uniform cell suspension of known concentration, and then add it to the 96-well cell culture plate Cell suspension, so that each well contains 1000 cells. Put it into a 5% CO2 incubator and incubate at 37° C. for 20-24 h. On the second day, the fully dissolved, 3-fold serially diluted compound was added to each cell culture well, so that the final maximum concentration in the cell culture well was 20 uM, and the culture was continued for 96 hours. In this test, Promega's cell viability detection test is used for detection. The more the cells proliferate, the stronger the final signal intensity will be. The detection instrument is SpectraMax, full wavelength mode. The wells only added with DMSO were used as positive control wells, and the wells that were not inoculated with cells were used as negative control wells. […] The IC50 value of cell proliferation inhibition was used to evaluate the inhibitory effect of the compound on the Wnt pathway and the toxic effect on normal cells (Table 2).

DU4475 = test: Proliferation inhibition, Wnt mutant cell line DU4475; format: cell-based; conditions: DU4475, Wnt pathway-dependent, 96 hours, read-out: Antiproliferative IC50 DU4475
How it was run: as §1

NCI-H929 = test: Proliferation inhibition, NCI-H929 cell line; format: cell-based, human; conditions: NCI-H929 cells, 96 hours culture, cell viability detection, read-out: Antiproliferative IC50 NCI-H929
How it was run: as §2

[2] = test system: human myeloma cell NCI-H929 SCID xenograft; test: Tumor growth inhibition, NCI-H929 mouse xenograft model; format: in vivo; conditions: 30 mg/kg, PO, QD x 21
Description: In this study, human myeloma cell NCI-H929 SCID xenograft model was used to evaluate the anti-tumor activity of compound 11 in vivo.
Female SCID were subcutaneously inoculated with human myeloma cells NCI-H929 to establish the NCI-H929 SCID xenograft model. After the tumor grew to an average tumor volume of about 80 mm^3, the tumor-bearing mice were randomly divided into two groups according to the tumor volume: the solvent-treated control group and the 30 mg/kg compound 11 group. Compound 11 was administered orally, once a day, and the administration cycle was 21 days. The tumor volume was measured every other day, and the body weight and tumor volume were measured on Day 21 (Table 4 and FIG. 1).

| IC50 (Colo205; Homo sapiens, COLO 205) | IC50 [1] | IC50 (HepG2) | IC50 (Hela; Homo sapiens) | IC50 (NCI-H929; Homo sapiens) | IC50 (Colo205) | IC50 (Hela) | IC50 (NCI-H929) | Compound | IC50 (RKO; Homo sapiens) | IC50 (DU4475; Homo sapiens, DU-4475) | IC50 (RKO) | % T/CRTV Day 21 [2] | % TGITW Day 21 [2] | % TGItv Day 21 [2] | RTV Day 21 [2] | Tumor weight Day 21 [2] | IC50 (DU4475) |
| --- | --- | --- | --- | --- | --- | --- | --- | --- | --- | --- | --- | --- | --- | --- | --- | --- | --- |
| 0.0082 µM | 0.012 µM | 0.0044 µM | > 10 µM |  |  |  |  | COC[C@H]1Cn2ccc3nc(NCc4cnn(Cc5ccc(C(F)(F)F)nc5)c4)nc(c32)N1C [68 (W49)] | > 10 µM | 0.0128 µM |  |  |  |  |  |  |  |
| 0.0246 µM | 0.01 µM | 0.0093 µM | > 10 µM |  |  |  |  | C[C@H]1Cn2ccc3nc(NCc4cnn(CC(F)(F)F)c4)nc(c32)N1C [80 (W104)] | > 10 µM | 0.0275 µM |  |  |  |  |  |  |  |
| 0.0124 µM | 0.006 µM | 0.001 µM | 1.44 µM |  |  |  |  | C[C@H]1Cn2ccc3nc(NCc4ccc(OCC(F)(F)F)nc4)nc(c32)N1C [82 (W107)] | 1.83 µM | 0.011 µM |  |  |  |  |  |  |  |
| 0.031 µM | 0.028 µM | 0.035 µM | > 10 µM | 0.065 µM |  |  |  | C[C@H]1C(=O)N2CCCc3nc(NCc4ccc(Oc5cnc(C(F)(F)F)nc5)nc4)nc(c32)N1C [91 (W221)] | > 10 µM | 0.024 µM |  |  |  |  |  |  |  |
| 0.021 µM | 0.031 µM | 0.044 µM | > 10 µM | 0.045 µM |  |  |  | [2H]C([2H])([2H])N1c2nc(NCc3ccc(Oc4ccc(C(F)(F)F)nc4)nc3)nc3c2N(CCC3)C(=O)[C@@H]1C [105 (W199)] | > 10 µM | 0.031 µM |  |  |  |  |  |  |  |
| 0.02 µM | 0.021 µM | 0.04 µM | > 10 µM | 0.094 µM |  |  |  | O=C1[C@@H]2CCCN2c2nc(NCc3ccc(Oc4ccc(C(F)(F)F)nc4)nc3)nc3c2N1CCC3 [111 (W241), (S)-2-(((6-((6-(trifluoromethyl)pyridin-3-yl)oxo)pyridin-3-yl)methyl)amino)-5,6,8a,9, 10,11-hexahydro-4H,8H-pyrido[3,2,1-de]pyrrolo[2,1-h]pteridin-8-one] | > 10 µM | 0.037 µM |  |  |  |  |  |  |  |
| 0.023 µM | 0.027 µM | 0.037 µM | > 10 µM | 0.06 µM |  |  |  | CO[C@H](C)[C@H]1C(=O)N2CCCc3nc(NCc4ccc(Oc5ccc(C(F)(F)F)nc5)nc4)nc(c32)N1C [114 (W243), (S)-5-((R)-1-methoxyethyl)-4-methyl-2-(((6-((6-(trifluoromethyl)pyridin-3-yl)oxo)pyridin-3-yl)methyl)amino)-4,5,9,10-tetrahydro-6H,8H-pyrido[3,2,1-de]pteridin-6-one] | > 10 µM | 0.02 µM |  |  |  |  |  |  |  |
| 0.0034 µM | 0.004 µM | 0.0031 µM | > 10 µM | 0.027 µM |  |  |  | CC(C)[C@H]1C(=O)N2CCCc3nc(NCc4ccc(Oc5ccc(C(F)(F)F)nc5)nc4)nc(c32)N1C [117 (W237), (S)-5-isopropyl-4-methyl-2-(((6-((6-(trifluoromethyl)pyridin-3-yl)oxo)pyridin-3-yl)methyl)amino)-4,5,9,10-tetrahydro-6H,8H-pyrido[3,2,1-de]pteridin-6-one] | > 10 µM | 0.0082 µM |  |  |  |  |  |  |  |
| 0.035 µM | 0.019 µM |  | > 10 µM |  |  |  |  | CN1CC(F)(F)Cn2ccc3nc(NCc4cnn(Cc5ccc(C(F)(F)F)nc5)c4)nc1c32 [Example 26, 8,8-difluoro-6-methyl-N-((1-((6-(trifluoromethyl)pyridin-3-yl)methyl)-1H-pyrazol-4-yl)methyl)-6,7,8,9-tetrahydro-3,5,6,9a-tetraazabenzo[cd]azulene-4-amine] | > 10 µM | 0.028 µM |  |  |  |  |  |  |  |
| 0.076 µM | 0.026 µM |  | > 10 µM |  |  |  |  | C[C@@H]1CN(C)c2nc(NCc3cnn(Cc4ccc(C(F)(F)F)nc4)c3)nc3ccn1c23 [Example 27, (R)-4,6-dimethyl-N-((1-((6-(trifluoromethyl)pyridin-3-yl)methyl)-1H-pyrazol-4-yl)methyl)-5,6-dihydro-4H-pyrrolo[3,2,1-de]pteridin-2-amine] | 4.43 µM | 0.037 µM |  |  |  |  |  |  |  |
| 0.029 µM | 0.027 µM |  | > 10 µM |  |  |  |  | FC(F)(F)c1ccc(Cn2cc(CNc3nc4c5c(ccn5C[C@@H]5COCCN45)n3)cn2)cn1 [Example 28, (R)—N-((1-((6-(trifluoromethyl)pyridin-3-yl)methyl)-1H-pyrazol-4-yl)methyl)-7a,8,10,11-tetrahydro-7H-[1,4]oxazino[3,4-h]pyrrolo[3,2,1-de]pteridin-2-amine] | > 10 µM | 0.034 µM |  |  |  |  |  |  |  |
|  | 0.061 µM |  |  |  | 0.032 µM | > 10 µM | 0.055 µM | (S)-4,5-dimethyl-2-(((6-((6-(trifluoromethyl)pyridin-3-yl)oxy)pyridin-3-yl)methyl)amino)-4,5,9,10-tetrahydro-6H,8H-pyrido[3,2,1-de]pteridin-6-one [Example 11] |  |  | > 10 µM | 1.59% | 98.86% | 98.42% | 0.33 | 0.023 g | 0.037 µM |
|  | 0.057 µM |  |  |  | 0.046 µM | > 10 µM |  | (S)-6,7-dimethyl-4-(((1-((6-(trifluoromethyl)pyridin-3-yl)methyl)-1H-pyrazol-4-yl)methyl)amino)-7,8-dihydro-3,5,6,9a-tetraazabenzo[cd]azulene-9(6H)-one [Example 6] |  |  | > 10 µM |  |  |  |  |  | 0.059 µM |
